“And” between values parts separate entries of the source, which are not always exact repeats. Identical values can stand only once. Like-named read-outs stand apart in the source and are kept apart here.
Legend:
FES^S700C = FES^S700C (Homo sapiens, UniProt P07332, S700C); experiment: Inhibitor washout by dialysis; type: binding; design: expressed in transfected cells; host or cells: HEK293T (transient, PEI)
ULK1 = biological target: T1, ULK1 (Homo sapiens, UniProt O75385); experiment: SelectScreen kinase assay
T1 sequence (O75385 1-1050): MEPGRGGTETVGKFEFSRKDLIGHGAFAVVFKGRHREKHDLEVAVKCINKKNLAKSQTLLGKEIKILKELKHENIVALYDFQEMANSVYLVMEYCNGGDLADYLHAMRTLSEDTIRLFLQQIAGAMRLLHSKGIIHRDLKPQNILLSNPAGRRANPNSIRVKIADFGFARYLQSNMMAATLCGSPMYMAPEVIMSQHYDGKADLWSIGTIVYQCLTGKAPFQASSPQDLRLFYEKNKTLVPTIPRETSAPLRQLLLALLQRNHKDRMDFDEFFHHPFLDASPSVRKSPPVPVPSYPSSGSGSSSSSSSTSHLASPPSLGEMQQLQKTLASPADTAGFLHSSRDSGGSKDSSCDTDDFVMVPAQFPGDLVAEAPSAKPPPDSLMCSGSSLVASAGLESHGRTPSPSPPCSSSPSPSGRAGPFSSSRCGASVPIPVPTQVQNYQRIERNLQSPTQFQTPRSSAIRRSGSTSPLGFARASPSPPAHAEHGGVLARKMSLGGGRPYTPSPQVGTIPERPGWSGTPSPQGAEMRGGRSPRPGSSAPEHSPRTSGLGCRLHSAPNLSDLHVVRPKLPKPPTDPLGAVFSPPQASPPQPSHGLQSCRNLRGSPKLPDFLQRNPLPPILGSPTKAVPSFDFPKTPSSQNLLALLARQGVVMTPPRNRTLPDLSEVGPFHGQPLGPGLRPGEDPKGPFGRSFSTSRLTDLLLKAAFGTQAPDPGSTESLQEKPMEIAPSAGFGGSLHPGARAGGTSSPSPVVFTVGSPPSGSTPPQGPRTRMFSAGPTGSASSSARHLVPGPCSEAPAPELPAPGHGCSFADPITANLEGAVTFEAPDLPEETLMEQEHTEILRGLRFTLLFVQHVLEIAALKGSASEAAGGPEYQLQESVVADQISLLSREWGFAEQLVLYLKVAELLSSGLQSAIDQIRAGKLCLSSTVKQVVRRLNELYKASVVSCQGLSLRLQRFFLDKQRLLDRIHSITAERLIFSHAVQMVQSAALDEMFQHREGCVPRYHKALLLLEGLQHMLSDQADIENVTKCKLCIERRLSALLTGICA
Description: (§1) Selectivity profiling assays were performed by the Invitrogen SelectScreen™ Services. […] The concentration of ATP was selected to be equal to the KM, unless indicated otherwise.

PDK1 Direct = biological target: T2, PDK1 Direct (Homo sapiens, UniProt O15530); experiment: SelectScreen kinase assay
T2 sequence (O15530 1-556): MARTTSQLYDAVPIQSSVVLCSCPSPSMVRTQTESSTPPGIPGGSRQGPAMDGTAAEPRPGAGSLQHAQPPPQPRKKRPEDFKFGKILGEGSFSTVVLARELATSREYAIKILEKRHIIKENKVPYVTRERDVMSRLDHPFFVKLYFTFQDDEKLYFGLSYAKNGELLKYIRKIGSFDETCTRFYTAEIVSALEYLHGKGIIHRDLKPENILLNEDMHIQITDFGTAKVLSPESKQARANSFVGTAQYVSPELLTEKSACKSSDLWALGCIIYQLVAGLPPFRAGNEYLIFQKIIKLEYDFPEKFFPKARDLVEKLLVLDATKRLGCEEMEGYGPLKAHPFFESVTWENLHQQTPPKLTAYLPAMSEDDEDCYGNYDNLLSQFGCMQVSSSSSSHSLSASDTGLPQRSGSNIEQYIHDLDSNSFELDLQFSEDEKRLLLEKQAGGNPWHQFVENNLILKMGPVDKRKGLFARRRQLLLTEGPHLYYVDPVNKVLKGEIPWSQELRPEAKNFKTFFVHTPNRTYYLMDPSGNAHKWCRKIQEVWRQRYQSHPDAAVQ
Description: as §1

[1] = biological target: T3, MAP3K7/MAP3K7IP1 (TAK1-TAB1) (Homo sapiens, UniProt O43318); experiment: SelectScreen kinase assay
T3 sequence (O43318 1-303 limits assumed): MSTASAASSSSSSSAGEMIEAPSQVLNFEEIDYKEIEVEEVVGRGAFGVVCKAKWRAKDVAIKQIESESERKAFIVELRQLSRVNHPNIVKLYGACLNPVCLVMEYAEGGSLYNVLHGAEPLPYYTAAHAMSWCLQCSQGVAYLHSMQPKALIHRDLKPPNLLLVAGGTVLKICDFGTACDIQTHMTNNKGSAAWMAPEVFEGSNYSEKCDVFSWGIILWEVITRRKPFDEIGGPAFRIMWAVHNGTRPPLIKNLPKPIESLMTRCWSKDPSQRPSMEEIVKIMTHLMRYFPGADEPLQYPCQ
T3 sequence (Q15750 437-504 partner limits assumed): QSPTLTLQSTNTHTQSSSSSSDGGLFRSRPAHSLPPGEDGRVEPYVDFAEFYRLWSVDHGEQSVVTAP
Description: as §1

PRKCI (PKC iota) = biological target: T4, PRKCI (PKC iota) (Homo sapiens, UniProt P41743); experiment: SelectScreen kinase assay; conditions: for Inhibition at 1 µM (%): PRKCI (PKC iota), ZLYTE, ATP Km app
T4 sequence (P41743 1-596): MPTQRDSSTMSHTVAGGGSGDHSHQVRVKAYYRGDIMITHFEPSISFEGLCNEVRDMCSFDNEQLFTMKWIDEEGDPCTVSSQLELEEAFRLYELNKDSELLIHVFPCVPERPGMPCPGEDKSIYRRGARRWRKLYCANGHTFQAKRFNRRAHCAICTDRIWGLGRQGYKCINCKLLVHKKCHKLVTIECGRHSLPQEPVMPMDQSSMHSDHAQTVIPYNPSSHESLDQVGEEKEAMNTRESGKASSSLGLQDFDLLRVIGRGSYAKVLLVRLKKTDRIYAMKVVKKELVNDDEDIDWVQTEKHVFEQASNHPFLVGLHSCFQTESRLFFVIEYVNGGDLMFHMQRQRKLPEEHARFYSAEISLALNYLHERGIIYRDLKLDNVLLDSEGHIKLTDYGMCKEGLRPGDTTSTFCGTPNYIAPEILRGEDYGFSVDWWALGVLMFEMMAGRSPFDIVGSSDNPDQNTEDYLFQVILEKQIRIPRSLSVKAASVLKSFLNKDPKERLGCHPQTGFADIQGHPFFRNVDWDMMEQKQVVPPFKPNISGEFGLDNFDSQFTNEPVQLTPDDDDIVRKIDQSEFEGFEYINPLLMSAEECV
Description: as §1

[2] = 1 h, 1 μM WEL028, 1 h preincubation

FES^S700C, sequence (P07332 whole entry S700C): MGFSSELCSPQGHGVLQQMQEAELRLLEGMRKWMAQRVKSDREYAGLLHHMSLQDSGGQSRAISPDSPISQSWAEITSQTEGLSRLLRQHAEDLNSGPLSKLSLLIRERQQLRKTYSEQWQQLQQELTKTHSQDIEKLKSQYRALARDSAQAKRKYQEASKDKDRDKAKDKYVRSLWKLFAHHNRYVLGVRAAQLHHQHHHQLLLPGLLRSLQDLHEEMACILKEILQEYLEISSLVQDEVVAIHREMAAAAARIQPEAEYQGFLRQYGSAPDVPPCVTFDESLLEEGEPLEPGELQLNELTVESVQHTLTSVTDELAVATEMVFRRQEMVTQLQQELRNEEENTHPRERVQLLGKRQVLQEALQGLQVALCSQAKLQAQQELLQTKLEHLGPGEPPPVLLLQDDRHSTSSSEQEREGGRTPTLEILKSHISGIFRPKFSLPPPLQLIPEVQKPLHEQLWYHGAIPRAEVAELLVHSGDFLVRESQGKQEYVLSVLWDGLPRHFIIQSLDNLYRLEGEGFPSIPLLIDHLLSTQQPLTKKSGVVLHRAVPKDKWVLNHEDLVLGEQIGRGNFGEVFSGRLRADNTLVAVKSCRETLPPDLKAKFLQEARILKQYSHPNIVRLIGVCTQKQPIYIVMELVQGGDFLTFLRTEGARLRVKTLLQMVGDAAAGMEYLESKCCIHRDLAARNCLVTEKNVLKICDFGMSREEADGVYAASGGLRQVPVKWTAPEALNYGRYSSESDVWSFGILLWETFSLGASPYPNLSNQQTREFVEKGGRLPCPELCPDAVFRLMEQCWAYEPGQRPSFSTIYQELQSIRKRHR

Which IC80 (FES^S700C; concentration used for dialysis, 30 min, rt) does the source give for `C#CCOc1ccc(Nc2ncc(Cl)c(Nc3ccccc3NC(=O)C=C)n2)c(OC)c1` [Compound 6] here?
The IC80 was 231 nM.

What about the “Relative FES labeling (% of vehicle), Pre-dialysis” value (FES^S700C; inhibitor at IC80, WEL033 250 nM, replicates, listed as WEL028) of the same compound?
Its value is 2.76% and 2.085% and 2.269%.

And the “Relative FES labeling (% of vehicle), Post-dialysis” value (FES^S700C; overnight dialysis at 4 °C, WEL033 250 nM, replicates, listed as WEL028)?
The value was 10.52% and 32.8765% and 11.5588%.

What about the “Inhibition (%)” value (ULK1; 1 μM WEL028, 1 h preincubation) of the same compound?
The value was 4%.

What about the “Inhibition at 1 µM (%)” value (ULK1; 1 µM, LanthaScreen Binding, listed as WEL028, 1 µM) of the same compound?
The value was 4%.

And the inhibition at 1 µM (ULK1; read-out: Inhibition at 1 µM (%), 1 µM, LanthaScreen Binding)?
Its inhibition at 1 µM is 5%.

What about the inhibition at 1 µM (PDK1 Direct; [2]) of the same compound?
Its inhibition at 1 µM is 5%.

What about the “Inhibition at 1 µM (%)” value (PDK1 Direct; PDK1 Direct, 1 µM, ZLYTE, ATP Km app, listed as WEL028, 1 µM) of the same compound?
Its value is 3%.

What about the inhibition at 1 µM (PDK1 Direct; read-out: Inhibition at 1 µM (%), PDK1 Direct, 1 µM, ZLYTE, ATP Km app) of the same compound?
The inhibition at 1 µM was 6%.

And the inhibition at 1 µM [1, 2]?
The inhibition at 1 µM was 13%.

What about the “Inhibition at 1 µM (%)” value ([1]; MAP3K7/MAP3K7IP1 (TAK1-TAB1), 1 µM, LanthaScreen Binding, listed as WEL028, 1 µM) of the same compound?
Its value is 15%.

What about the inhibition at 1 µM ([1]; read-out: Inhibition at 1 µM (%), MAP3K7/MAP3K7IP1 (TAK1-TAB1), 1 µM, LanthaScreen Binding) of the same compound?
The inhibition at 1 µM was 11%.

What about the inhibition at 1 µM (PRKCI (PKC iota); [2]) of the same compound?
The inhibition at 1 µM was 10%.

What about the “Inhibition at 1 µM (%)” value (PRKCI (PKC iota)) of the same compound?
The value was 15%.

What about the “Inhibition at 1 µM (%)” value (PRKCI (PKC iota); listed as WEL028, 1 µM) of the same compound?
The value was 5%.

From paper PMC7316778 (Nature Communications, 2020)
